A short description of assay [1]: Antioxidant activity in plasma assessed as ABTS radical scavenging activity relative to trolox. It counts as functional, cell-free.
Assay [2] concerns Erythrocyte. The assay is described as follows: Antioxidant activity in Homo sapiens (human) erythrocytes assessed as protection against t-BHP-induced oxidative stress measured up to 180 min. It counts as functional, cell-based.
Assay [3] has as its system Erythrocyte. In words: Antioxidant activity in Homo sapiens (human) erythrocytes assessed as protection against t-BHP-induced oxidative stress at 0.1 to 100 uM. The format is functional, cell-based. The conditions noted are these: TDE = time-dependent effect.

Turning to `O=c1c(O)c(-c2ccc(O)c(O)c2)oc2cc(O)cc(O)c12`, in assay [1], the fold change (FC) was found to be 6. Further, the Activity entry in the assay with Erythrocyte [2] was “Dose-dependent effect”; in the assay with Erythrocyte [3], “tde”.
